Consider 14 compounds from patent US8106055B2, “Substituted amide compounds” (Gruenenthal GmbH, priority 2007, dated 2012).

By inhibition is commonly meant the drop in the measured response relative to a control, in per cent.

The target in test [1] is T1, human bradykinin 1 receptor (B1R) (Homo sapiens, UniProt P46663).
T1 construct: expressed in transfected cells; host or cells: CHO K1 cells
T1 sequence (P46663 1-353): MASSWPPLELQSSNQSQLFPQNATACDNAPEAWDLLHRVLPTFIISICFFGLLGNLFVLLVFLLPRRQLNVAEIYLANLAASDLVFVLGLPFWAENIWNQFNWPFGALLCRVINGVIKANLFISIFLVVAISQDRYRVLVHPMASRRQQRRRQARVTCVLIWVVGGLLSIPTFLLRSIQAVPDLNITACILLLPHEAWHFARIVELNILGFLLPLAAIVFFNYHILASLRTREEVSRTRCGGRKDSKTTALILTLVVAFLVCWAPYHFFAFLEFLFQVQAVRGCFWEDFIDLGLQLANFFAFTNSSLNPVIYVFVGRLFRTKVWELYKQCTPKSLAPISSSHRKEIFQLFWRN
Description: Functional investigation on the human bradykinin 1 receptor (B1R), Ca2+ FLIPR assay in CHO K1 hB1R cells. Format: cell-based. To be noted: test substance 10 μM, Ca2+ FLIPR, CHO K1 hB1R cells; for inhibition at 10 µM: CHO-K1, B1R antagonism human, read-out: B1R Ant. h [10 μM] % Inhibition; for B1R Ant. h [10 μM] % Inhibition: B1R antagonism human. The essentials:
(§1)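 Peak Ca2+-dependent fluorescence in B1R-transfected CHO K1 cells measures antagonism of an EC80 agonist challenge given 10-20 min after compound. Agonist is Lys-Des-Arg9-bradykinin for human, Des-Arg9-bradykinin for rat receptor.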

The target in test [2] is T2, bradykinin 1 receptor (B1R) of the rat (Rattus norvegicus, UniProt P97583).
T2 construct: expressed in transfected cells; host or cells: CHO K1 cells
T2 sequence (P97583 1-337): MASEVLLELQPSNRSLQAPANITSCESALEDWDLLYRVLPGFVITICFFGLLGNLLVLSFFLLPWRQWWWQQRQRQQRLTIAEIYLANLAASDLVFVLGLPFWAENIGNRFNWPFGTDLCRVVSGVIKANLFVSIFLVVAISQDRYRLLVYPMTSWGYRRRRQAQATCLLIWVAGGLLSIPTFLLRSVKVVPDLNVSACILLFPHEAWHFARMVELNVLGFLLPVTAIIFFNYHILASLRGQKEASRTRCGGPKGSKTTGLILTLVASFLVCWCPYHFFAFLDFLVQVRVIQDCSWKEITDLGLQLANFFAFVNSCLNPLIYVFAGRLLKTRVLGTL
Description: Functional investigation on the rat bradykinin 1 receptor (B1R), Ca2+ FLIPR assay in CHO K1 rB1R cells. Format: cell-based. The conditions noted are these: test substance 10 μM, Ca2+ FLIPR, CHO K1 rB1R cells; for inhibition at 10 µM: CHO-K1, B1R antagonism rat, read-out: B1R Ant. r [10 μM] % Inhibition; for B1R Ant. r [10 μM] % Inhibition: B1R antagonism rat. The essentials: as §1

For `CN(C)C(c1cccs1)C1CCC(CCNC(=O)COCCN(Cc2ccccc2)S(=O)(=O)c2ccccc2)CC1` (stereo not shown) [Example 116, 2-(2-(N-benzylphenylsulfonamido)ethoxy)-N-(2-(4-((dimethylamino)(thiophen-2-yl)methyl)cyclohexyl)ethyl)acetamide], the inhibition at 10 µM in test [1] came to 28%; in test [2] it was 14%.
The like results for `Cc1ccc(S(=O)(=O)N2CCC(OCC(=O)NCC3CCC(C(c4ccccc4)N(C)C)CC3)C2)cc1` (stereo not shown) [Example 125, N-((4-((dimethylamino)(phenyl)methyl)cyclohexyl)methyl)-2-(1-tosylpyrrolidin-3-yloxy)acetamide] were, in that order, 26% and 6%.
For `COc1ccc(S(=O)(=O)N(C)CCOCC(=O)NC2CCC(C(c3ccc(F)cc3)N(C)C)CC2)cc1OC` (stereo not shown) [Example 548], in test [1], the “B1R Ant. h [10 μM] % Inhibition” value is recorded as 6%. The “B1R Ant. r [10 μM] % Inhibition” value in test [2] was 11%.
For the compound `COc1cc(C)c(S(=O)(=O)N2CCC(OCC(=O)NC3CCC(C(c4cccs4)N(C)C)CC3)C2)c(C)c1` (stereo not shown) [Example 98, N-(4-((dimethylamino)(thiophen-2-yl)methyl)cyclohexyl)-2-(1-(4-methoxy-2,6-dimethylphenylsulfonyl)pyrrolidin-3-yloxy)acetamide], the inhibition at 10 µM in test [1] was 64%; in test [2], 69%.
In the case of `CN(C)C(CCc1ccccc1)C1CCC(CNC(=O)COC2CCN(S(=O)(=O)c3ccccc3)C2)CC1` (stereo not shown) [Example 573], in test [1], the “B1R Ant. h [10 μM] % Inhibition” value is listed as −4%. In addition, the “B1R Ant. r [10 μM] % Inhibition” value in test [2] is 14%.
As to `CN(C)C(c1cccs1)C1CCC(CCNC(=O)COCCN2CCN(S(=O)(=O)c3ccccc3)CC2)CC1` (stereo not shown) [Example 99, N-(2-(4-((dimethylamino)(thiophen-2-yl)methyl)cyclohexyl)ethyl)-2-(2-(4-(phenylsulfonyl)piperazin-1-yl)ethoxy)acetamide], the inhibition at 10 µM in test [1] and in test [2] was -8% throughout.
Consider `CN(C)C(CCc1ccccc1)C1CCC(CNC(=O)COC2CCCN(S(=O)(=O)c3ccccc3)C2)CC1` (stereo not shown) [Example 558], for which the “B1R Ant. h [10 μM] % Inhibition” value in test [1] was 14%. The “B1R Ant. r [10 μM] % Inhibition” value in test [2] amounted to 12%.
The like results for `COc1ccc(S(=O)(=O)N2CCCCC2COCC(=O)NCC2CCC(C(CCc3ccccc3)N(C)C)CC2)c(OC)c1` (stereo not shown) [Example 420] were, in that order, −7% and 2%.
`COc1cc(C)c(S(=O)(=O)N2CCC(OCC(=O)NCC3CCC(C(CCc4ccccc4)N(C)C)CC3)CC2)c(C)c1C` (stereo not shown) [Example 546]: the “B1R Ant. h [10 μM] % Inhibition” value in test [1] was found to be 34%. Further, the “B1R Ant. r [10 μM] % Inhibition” value in test [2] was 59%.
Consider `CN(C)C(c1ccccc1)C1CCC(NC(=O)COCCN(C)S(=O)(=O)c2c(Cl)cccc2Cl)CC1` (stereo not shown) [Example 135, 2-(2-(2,6-dichloro-N-methylphenylsulfonamido)ethoxy)-N-(4-((dimethylamino)(phenyl)methyl)cyclohexyl)acetamide], for which the inhibition at 10 µM is 79% in test [1] and 29% in test [2].
Regarding `CN(C)C(c1ccccc1)C1CCC(CNC(=O)COCCN(C)S(=O)(=O)c2ccc(Cl)cc2)CC1` (stereo not shown) [Example 110, 2-(2-(4-chloro-N-methylphenylsulfonamido)ethoxy)-N-((4-((dimethylamino) (phenyl)methyl)cyclohexyl)methyl)acetamide], the inhibition at 10 µM is 21% in test [1] and 10% in test [2].
Take `COc1ccc(S(=O)(=O)N2CCCCC2COCC(=O)NCC2CCC(C(CCc3ccccc3)N(C)C)CC2)cc1OC` (stereo not shown) [Example 559]: in test [1], the “B1R Ant. h [10 μM] % Inhibition” value amounted to 2%. Moreover, the “B1R Ant. r [10 μM] % Inhibition” value in test [2] is recorded as −12%.
With `CN(C)C(c1ccc(F)cc1)C1CCC(CNC(=O)COCCC2CCN(S(=O)(=O)c3ccccc3)CC2)CC1` (stereo not shown) [Example 583], in test [1], the “B1R Ant. h [10 μM] % Inhibition” value is listed as −27%. Moreover, the “B1R Ant. r [10 μM] % Inhibition” value in test [2] is 20%.
`COc1cc(C)c(S(=O)(=O)N(CCOCC(=O)NCCC2CCC(C(c3ccc(F)cc3)N(C)C)CC2)Cc2ccccc2)c(C)c1` (stereo not shown) [Example 547]: the “B1R Ant. h [10 μM] % Inhibition” value in test [1] came to 76%. In addition, the “B1R Ant. r [10 μM] % Inhibition” value in test [2] amounted to 30%.
